System: Arabidopsis thaliana
Assay: Arabidopsis thaliana seedling growth on culture medium containing 1 μM atrazine (atrazine tolerance)
Type: in vivo
Details: 15 days of incubation
Experimental: In this context, a mixture of sucrose and putrescine were tested. […] For a first control, no carbohydrate or polyamine were added to the culture medium. For a second control, only sucrose, at a rate of 3%, which is equivalent to a concentration of 87 millimolar, was added thereto. Finally, for a test according to the present invention, sucrose, at a rate of 3% and putrescine, at a rate of 3 to 6 mM, were added to the culture medium. The Petri dishes were stored for 48 hrs at 4° C. and transferred to 22° C. for a photoperiod of 16 hours per day at 4500 lux. The parameters characterizing the plant growth were referenced after 15 days of incubation: the biomass (% fresh weight) and chlorophyll (μg/seedling) produced were determined; the development of the main root (cm) and the secondary root system (primordia/seedlings) were recorded.

## CCNc1nc(Cl)nc(NC(C)C)n1 [atrazine, 2-chloro-4-ethylamino-6-isopropylamine-1,3,5-triazine]
No carbohydrate or polyamine added
  seedling development in the presence of atrazine (FIG. 1): unable to develop the photosynthetic apparatus

## OC[C@H]1O[C@@](CO)(O[C@H]2O[C@H](CO)[C@@H](O)[C@H](O)[C@H]2O)[C@@H](O)[C@@H]1O [sucrose]
  effect on atrazine inhibition / atrazine resistance, by size of the seedlings (FIG. 1): makes it possible to lift the atrazine inhibition effect
